These are literature values, as cited in patent US20220370444A1 (priority 2019, published 2022).

The subject of one series is TB. To be noted: after two weeks of oral administration.
The conditions of series [1]: not told.
The conditions of series [2]: in vivo.

Turning to `CC(C)/N=c1\cc2n(-c3ccc(Cl)cc3)c3ccccc3nc-2cc1Nc1ccc(Cl)cc1` [clofazimine], the clinical benefit result in the series on TB is “no clinical benefit”. Further, in series [1], the membrane permeability result is on record as “high”. The “absorption in humans after oral administration” value in series [2] is recorded as 45-62%.
